Measured values: ChEMBL document CHEMBL1130548, “Synthesis and structure-activity relationships for a series of substituted pyrrolidine NK1/NK2 receptor antagonists” (Bioorg Med Chem Lett, 1997)

Key:
[1] = The solubility in a […] phosphate buffer solution at pH 7.4; type: ADME
[2] = The relative permeability was measured from transport studies using polycarbonate membranes and Dulbecco's modified eagle medium with 10% fetal bovine serum.; type: ADME
[3] = Partition coefficient (logP); type: physicochemical; details: octanol/water
Cavia porcellus = assay: The perorally administered compound was evaluated for percentage inhibition of capsaicin induced respiratory effects at 10 mg / kg concentration in guinea pig; details: po
[4] = Partition coefficient (logD); type: physicochemical; details: octanol/water
Rattus norvegicus = species on record: Rattus norvegicus; assay: The relative metabolic stability at 10 uM concentration was determined using rat liver […] fortified with NADPH.; type: functional
Substance-P receptor = Substance-P receptor (Cavia porcellus, UniProt P30547); assay: Binding affinity for NK1 receptor in guinea pig lung was determined by using [125 I]-Bolton Hunter labeled SP
Sequence of Substance-P receptor (P30547 whole entry): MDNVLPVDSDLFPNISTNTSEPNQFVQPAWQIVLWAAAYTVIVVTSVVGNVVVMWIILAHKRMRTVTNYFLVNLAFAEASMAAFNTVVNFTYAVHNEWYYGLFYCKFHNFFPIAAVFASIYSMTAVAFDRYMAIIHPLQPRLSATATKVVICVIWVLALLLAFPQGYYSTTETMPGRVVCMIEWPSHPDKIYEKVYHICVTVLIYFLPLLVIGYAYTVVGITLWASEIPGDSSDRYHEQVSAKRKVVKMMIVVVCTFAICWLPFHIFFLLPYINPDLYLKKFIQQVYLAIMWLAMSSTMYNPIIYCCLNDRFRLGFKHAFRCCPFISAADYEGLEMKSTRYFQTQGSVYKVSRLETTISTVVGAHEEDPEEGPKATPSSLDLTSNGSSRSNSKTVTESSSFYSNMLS

[5] = The pKa2 value for the compound was determined by titrating in an aqueous solution (ISA).; type: physicochemical; details: read-out: pKa2
[6] = The pKa1 value for the compound was determined by titrating in an aqueous solution (ISA).; type: physicochemical; details: read-out: pKa1
[7] = The pKa3 value for the compound was determined by titrating in an aqueous solution (ISA).; type: physicochemical; details: read-out: pKa3

`COc1cc(C(=O)N2CC[C@](CCN3CCC(C(N)=O)(c4ccncc4)CC3)(c3ccc(Cl)c(Cl)c3)C2)cc(OC)c1OC.Cl` showed a solubility [1] of 408 µg/mL, a Relative permiability [2] of 0.1 and a logP [3] of 1.9. It also gave an inhibition in vivo at 10 mg/kg (Cavia porcellus) of 20%, a logD [4] of 2.64 and a Relative metabolic stability (Rattus norvegicus) of 0.78. For the same compound, the IC50 (Substance-P receptor) was 2.49 nM, the pKa [5] was 4.14 and the pKa [6] was 7.53.
`COc1cc(C(=O)N2CCC(CCN3CCC(C(N)=O)(c4ccccc4)CC3)(c3ccc(F)cc3)C2)cc(OC)c1OC` (configuration not stated) gave an IC50 (Substance-P receptor) of 23.3 nM.
For `COc1cc(C(=O)N2CCC(CCN3CCC(C(N)=O)(c4ccc(F)cc4)CC3)(c3ccc(Cl)c(Cl)c3)C2)cc(OC)c1OC` (configuration not stated), the IC50 (Substance-P receptor) was 13.5 nM.
In the case of `COc1cccc(C2(C(N)=O)CCN(CCC3(c4ccc(Cl)c(Cl)c4)CCN(C(=O)c4cc(OC)c(OC)c(OC)c4)C3)CC2)c1` (configuration not stated), the IC50 (Substance-P receptor) is reported as 8.49 nM.
`COc1cc(C(=O)N2CCC(CCN3CCC(C(N)=O)(c4ccccc4)CC3)(c3ccc(Cl)cc3)C2)cc(OC)c1OC` (configuration not stated) gave an IC50 (Substance-P receptor) of 8.62 nM.
Compound `COc1cc(C(=O)N2CC[C@](CCN3CCC(C(=O)N4CCOCC4)(c4ccccc4)CC3)(c3ccc(Cl)c(Cl)c3)C2)cc(OC)c1OC.Cl` has a solubility [1] of 25 µg/mL, a Relative permiability [2] of 3.7 and a logP ([3]; read-out: logP) of 4.3. It also gave an inhibition in vivo at 10 mg/kg (Cavia porcellus) of 39%, a logD ([4]; read-out: logD) of 3.02 and a Relative metabolic stability (Rattus norvegicus) of 0.77. For the same compound, the IC50 (Substance-P receptor) was 4.34 nM and the pKa [6] was 7.51.
For `COc1cc(C(=O)N2CCC(CCN3CCC(C(N)=O)(c4ccccc4)CC3)(c3cccnc3)C2)cc(OC)c1OC` (configuration not stated), the IC50 (Substance-P receptor) was 567 nM.
`COc1cc(C(=O)N2CCC(CCN3CCC(C(=O)N4CCCCC4)(c4ccccc4)CC3)(c3ccc(Cl)c(Cl)c3)C2)cc(OC)c1OC` (configuration not stated) gave an IC50 (Substance-P receptor) of 23.2 nM.
Compound `COc1cc(C(=O)N2CCC(CCN3CCC(C(=O)NCCN4CCOCC4)(c4ccccc4)CC3)(c3ccc(Cl)c(Cl)c3)C2)cc(OC)c1OC` (configuration not stated) has an IC50 (Substance-P receptor) of 7.53 nM.
`COc1cc(C(=O)N2CCC(CCN3CCC(C(=O)N4CCOCC4)(c4ccccc4)CC3)(c3ccc(Cl)c(Cl)c3)C2)cc(OC)c1OC` (configuration not stated) gave an IC50 (Substance-P receptor) of 8.72 nM.
Compound `COc1cc(C(=O)N2CC[C@](CCN3CCC(C(N)=O)(c4cccnc4)CC3)(c3ccc(Cl)c(Cl)c3)C2)cc(OC)c1OC.Cl` has a solubility [1] of 548 µg/mL, a Relative permiability [2] of 0.1 and a logP [3] of 1.9. It also gave an inhibition in vivo at 10 mg/kg (Cavia porcellus) of 38%, a logD [4] of 2.59 and a Relative metabolic stability (Rattus norvegicus) of 0.72. It also gave an IC50 (Substance-P receptor) of 4.01 nM, a pKa [5] of 3.97 and a pKa [6] of 7.6.
With `COc1cc(C(=O)N2CCC(CCN3CCC(C(=O)N4CCN(C)CC4)(c4ccccc4)CC3)(c3ccc(Cl)c(Cl)c3)C2)cc(OC)c1OC` (configuration not stated) the IC50 (Substance-P receptor) was 4.51 nM.
Compound `COc1cc(C(=O)N2CC[C@](CCN3CCC(C(=O)N4CCN(C)CC4)(c4cccnc4)CC3)(c3ccc(Cl)c(Cl)c3)C2)cc(OC)c1OC.Cl` has a solubility [1] of 1200 µg/mL, a Relative permiability [2] of 1.2 and a logP ([3]; read-out: logP) of 3.2. The inhibition in vivo at 10 mg/kg (Cavia porcellus) was 13%, the pKa [7] was 6.71 and the logD ([4]; read-out: logD) was 2.41. It also gave an IC50 (Substance-P receptor) of 2.46 nM, a pKa [5] of 7.76 and a pKa [6] of 11.4.
With `COc1cc(C(=O)N2CCC(CCN3CCC(C(N)=O)(c4cccnc4)CC3)(c3ccc(Cl)c(Cl)c3)C2)cc(OC)c1OC` (configuration not stated) the IC50 (Substance-P receptor) was 8.14 nM.
Work on `COc1cc(C(=O)N2CCC(CCN3CCC(C(N)=O)(c4ccccc4)CC3)(c3ccc(F)c(F)c3)C2)cc(OC)c1OC` (configuration not stated) yielded an IC50 (Substance-P receptor) of 9.76 nM.
`COc1ccc(C2(CCN3CCC(C(N)=O)(c4ccccc4)CC3)CCN(C(=O)c3cc(OC)c(OC)c(OC)c3)C2)cc1OC` (configuration not stated) gave an IC50 (Substance-P receptor) of 36.7 nM.
With `COc1cc(C(=O)N2CC[C@](CCN3CCC(C(=O)N4CCN(C)CC4)(c4ccccc4)CC3)(c3ccc(Cl)c(Cl)c3)C2)cc(OC)c1OC.Cl` the solubility [1] was 426 µg/mL, the Relative permiability [2] was 2.1 and the logP ([3]; read-out: logP) was 4.7. For the same compound, the inhibition in vivo at 10 mg/kg (Cavia porcellus) was 31%, the logD ([4]; read-out: logD) was 3.71 and the Relative metabolic stability (Rattus norvegicus) was 0.43. The IC50 (Substance-P receptor) was 3.94 nM, the pKa [5] was 6.86 and the pKa [6] was 7.92.
`COc1cc(C(=O)N2CCC(CCN3CCC(C(N)=O)(c4ccncc4)CC3)(c3ccc(Cl)c(Cl)c3)C2)cc(OC)c1OC` (configuration not stated) showed an IC50 (Substance-P receptor) of 4.88 nM.
Work on `COc1cc(C(=O)N2CCC(CCN3CCC(C(N)=O)(c4ccccc4)CC3)(c3cccc(Cl)c3)C2)cc(OC)c1OC` (configuration not stated) yielded an IC50 (Substance-P receptor) of 10.7 nM.
Compound `COc1cc(C(=O)N2CC[C@](CCN3CCC(C(N)=O)(c4ccccc4)CC3)(c3ccc(Cl)c(Cl)c3)C2)cc(OC)c1OC.Cl` has a solubility [1] of 70 µg/mL, a Relative permiability [2] of 1 and a logP [3] of 3.4. For the same compound, the inhibition in vivo at 10 mg/kg (Cavia porcellus) was 60%, the logD ([4]; read-out: logD) was 3.02 and the Relative metabolic stability (Rattus norvegicus) was 1. It also gave an IC50 (Substance-P receptor) of 3.11 nM and a pKa [6] of 7.64.
With `COc1cc(C(=O)N2CCC(CCN3CCC(C(N)=O)(c4ccccc4)CC3)(c3ccc(Cl)c(Cl)c3)C2)cc(OC)c1OC` (configuration not stated) the IC50 (Substance-P receptor) was 5.88 nM.
